Test results as given in publication PMC12340070, “A novel modulator of IL-6R prevents inflammation-induced preterm birth and improves newborn outcome” (EMBO Molecular Medicine, 2025).
Where “and” joins values, the source holds several entries; their conditions need not be identical. Equal values may be shown once. Entries after “also recorded” stand apart in the source; their conditions may differ. Where a SMILES comes first, the peptide text is derived from it. Where no end group is shown, it is not given here. [ ]: non-standard residue; d: D form.

What was measured:
[1] = test system: placenta; test: HSJ633 biodistribution in placenta (fluorescence); format: in vivo, mouse; settings: 1 mg/kg s.c., LPS 10 μg i.p., GD17, 4 h, pregnant mice; 11–12 samples per group
Procedure: Mice were euthanized after 4 h to analyze tissue distribution of the fluorescent-tagged compounds. Placentas were collected and fixed in 4% paraformaldehyde for 1 day and transferred into 30% sucrose for another day. Placental cryosections were stained with DAPI (0.0002 mg/mL) for nuclei. Images were captured using a ×20 objective with a Zeiss AxioScan.Z1. Fluorescence analysis was performed using ImageJ.

[2] = test system: LPS-induced preterm birth in CD-1 mice; test: STAT3 inhibitor efficacy in LPS-induced PTB: gestational length and prematurity rate; format: in vivo, mouse; settings: for prevention of LPS-induced PTB: 5 mg/kg/day s.c., twice a day, GD16; for % PTB: group value; for GD (gestation day): individual dams, one per line
Procedure: Timed pregnant CD-1 mice at days 16 and 17 of gestation were anesthetized with isoflurane and given intraperitoneal (i.p.) injections of LPS (4 μg in 100 μL saline on GD16 and 6 μg in 100 μL saline on GD17, total 10 μg) or vehicle (100 μL). Doses of LPS were selected based on previous reports (Chang et al, [2011]; Elovitz and Mrinalini, [2004]; Fidel et al, [1994]; Sadowsky et al, [2006]; Salminen et al, [2008]; Urakubo et al, [2001]), preliminary dose–response experiments, and knowing that a systemic maternal infection is associated with the onset of labor (Romero et al, [2001]). A total of 100 μL of HSJ633 or HSJ639 (2 mg/kg/day), an anti-IL-6R antibody (800 μg/kg/day) or vehicle was injected subcutaneously (s.c.) 30 min before injections of LPS (to allow distribution of drugs to target tissues) and repeated twice daily until GD18.5.
Thirty minutes before administering LPS, on GD16, NSC74859 (5 mg/kg/day solubilized in 20% DMSO + water, injected twice a day s.c.) or rmgp130/Fc Chimera (10 μg i.p. on GD16 and 10 μg s.c. on GD16.5) were injected into distinct dams. The same LPS-induction PTB model as described above was used for these experiments (4 μg on GD16 + 6 μg on GD17, i.p.). Delivery was assessed until term (GD18.5–19.5).

[3] = test system: HEK293 cells; test: [125I]-HSJ633 binding on HEK293 cells devoid of IL-6R; set-up: species or system human; settings: [125I]-HSJ633 10^−8 M, 1.5 h; four samples per group
Procedure: (§1) The Bolton–Hunter reaction was utilized to conjugate the N-hydroxysuccinimide ester of 3-(4-hydroxyphenyl) propionic acid, a tyrosine-like residue, to primary amines as per the manufacturer’s instructions. Briefly, the peptide was dissolved in modification buffer (pH 9.0), then 100 μL of Bolton–Hunter Reagent was added and incubated for 3 h with periodic mixing. After incubating, the solution was dialyzed in PBS using a PlusOne Mini Dialysis Kit. Then 25 μL of peptide, 80 μL of PBS, and 25 μL of I^125 were combined in a precoated tube for 15 min. The reaction was stopped, and C-18 spin columns were used to perform washes and collect the iodine-marked peptide. Radioactivity measurements were made for each batch of radioactive peptides using a Gamma counter (Packard Cobra-II Auto Gamma Counter).
(§2) The HEK-blue IL-6 cells were allowed to acclimatize for two passages to complete the stabilization of the receptor. Prior to experiments, media was changed to adjust for a maximum quantity of 500 μL per well. Subsequently, unlabeled HSJ633 (10^−4 M) was added and allowed to reach equilibrium for 15 min. HEK293 and HEK-Blue IL-6 cells were then treated with the labeled HSJ633 in a quantity equating to 50,000 CPM per well. […] All samples were measured using a Gamma counter (Packard Cobra-II Auto Gamma Counter).

[4] = molecular target: T1, IL-6R (HEK-Blue IL-6 cells) (Homo sapiens, UniProt P08887); test: [125I]-HSJ633 binding and displacement on HEK-Blue IL-6 cells; settings: 3–4 samples per group
T1 construct: host or cells: HEK-Blue IL-6 cells (HEK293-derived, H. sapiens)
Procedure: as §1, §2

[5] = molecular target: T1, IL-6R (HEK-Blue IL-6 cells); test: TNF-α expression in HEK-Blue IL-6 cells (RT-qPCR), peptide screening; format: cell-based; settings: IL-6 3.86 nM 6 h, peptides 1 μM, TCZ 3.44 μM, RT-qPCR normalized to 18S, 2-9 samples per group
Procedure: HEK293 and HEK-blue IL-6 cells were purchased and were used at fewer than 15 passages and tested mycoplasma negative. Cells were cultured in DMEM growth medium supplemented with 10% fetal bovine serum (FBS), 50 U/mL penicillin, and 50 μg/mL streptomycin. HEK-blue IL-6 cell media was also supplemented with HEK-Blue Selection (1:250). Ba/F3-polylinker, Ba/F3-mgp130, and Ba/F3-mgp130-IL-6Rα cells were cultured in RPMI 1640 growth medium supplemented with 10% FBS, 50 U/mL penicillin, and 50 μg/mL streptomycin. These cells were maintained in murine IL-3 at 10 ng/mL and puromycin at 1 μg/mL. Cells were cultured in standard experimental conditions (37 °C, 5% CO2).
For RT-qPCR experiments, cells were plated in 6-well plates at 70% of confluence and starved overnight. […] Samples were stored at −20 °C until analysis by quantitative PCR. […]
Samples (30 mg) of uterus, placenta, fetal membranes, as well as the fetal lung, brain, and intestine, were thawed and deposited in lysis buffer according to the manufacturer’s protocol (Qiagen RNeasy Plus Mini Kit). […] RNA was quantified with a NanoDrop 1000 spectrophotometer and samples (500 ng) were treated with DNAse I (1U). […] Quantitative gene expression analysis was performed on a Light Cycler 96 with iTaq Universal SYBR Green Supermix. […]
Target sequence in this assay (P08887 20-468): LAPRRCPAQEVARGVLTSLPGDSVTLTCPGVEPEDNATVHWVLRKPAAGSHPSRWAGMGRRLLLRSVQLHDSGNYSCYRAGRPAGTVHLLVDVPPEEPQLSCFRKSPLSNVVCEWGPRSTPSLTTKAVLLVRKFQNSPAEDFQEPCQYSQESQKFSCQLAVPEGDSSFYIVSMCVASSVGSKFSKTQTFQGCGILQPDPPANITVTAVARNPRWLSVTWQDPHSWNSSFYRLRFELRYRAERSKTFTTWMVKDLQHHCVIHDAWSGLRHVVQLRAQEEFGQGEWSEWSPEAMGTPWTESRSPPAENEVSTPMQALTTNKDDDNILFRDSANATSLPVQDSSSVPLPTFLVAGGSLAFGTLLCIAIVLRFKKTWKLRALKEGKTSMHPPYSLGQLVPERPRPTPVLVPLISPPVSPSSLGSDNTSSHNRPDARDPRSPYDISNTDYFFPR
Target sequence in this assay (P40189 23-918 partner): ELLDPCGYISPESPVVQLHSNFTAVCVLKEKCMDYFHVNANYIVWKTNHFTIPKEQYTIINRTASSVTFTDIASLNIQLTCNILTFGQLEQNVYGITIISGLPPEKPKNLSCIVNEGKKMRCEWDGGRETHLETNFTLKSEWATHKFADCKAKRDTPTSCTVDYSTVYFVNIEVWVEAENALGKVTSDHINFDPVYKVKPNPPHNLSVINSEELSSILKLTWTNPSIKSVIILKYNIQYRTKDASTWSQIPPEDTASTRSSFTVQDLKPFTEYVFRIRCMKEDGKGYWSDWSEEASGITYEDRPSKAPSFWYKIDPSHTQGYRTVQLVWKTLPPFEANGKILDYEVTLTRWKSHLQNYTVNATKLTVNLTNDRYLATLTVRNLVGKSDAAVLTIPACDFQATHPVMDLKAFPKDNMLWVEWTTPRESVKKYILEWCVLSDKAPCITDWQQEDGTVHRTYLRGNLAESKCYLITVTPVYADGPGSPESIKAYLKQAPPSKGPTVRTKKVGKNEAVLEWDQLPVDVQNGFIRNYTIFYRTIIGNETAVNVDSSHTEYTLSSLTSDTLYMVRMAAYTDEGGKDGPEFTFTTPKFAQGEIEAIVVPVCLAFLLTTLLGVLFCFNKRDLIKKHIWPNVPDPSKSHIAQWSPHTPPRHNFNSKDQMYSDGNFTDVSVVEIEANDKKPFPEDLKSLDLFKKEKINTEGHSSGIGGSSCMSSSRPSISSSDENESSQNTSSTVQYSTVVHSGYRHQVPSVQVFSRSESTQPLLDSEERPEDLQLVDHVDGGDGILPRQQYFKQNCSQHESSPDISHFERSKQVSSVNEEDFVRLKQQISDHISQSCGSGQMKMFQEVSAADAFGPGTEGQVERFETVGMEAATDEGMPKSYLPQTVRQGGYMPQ
Target sequence in this assay (P05231 30-212 partner): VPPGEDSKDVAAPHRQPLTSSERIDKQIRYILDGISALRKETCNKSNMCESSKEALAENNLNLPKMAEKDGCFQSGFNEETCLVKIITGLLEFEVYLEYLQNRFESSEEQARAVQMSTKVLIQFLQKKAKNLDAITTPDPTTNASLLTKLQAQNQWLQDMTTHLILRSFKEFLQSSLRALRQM

[6] = test system: lung parenchyma; settings: mouse, in vivo
Procedure: To determine the maximal delay of administration of HSJ633, LPS was injected as previously described, and HSJ633 was either administered 2 h or 6 h after the LPS injection at GD16. Dams were consistently observed for delivery until term (G18.5–19.5), and the body weight and survival rate (if 2 or more pups are alive, the litter is considered alive) of the neonates were recorded. The prematurity rate was assessed by determining the number of dams delivering prematurely (gestation length before 18.5 days) out of the total number of dams in the same group. The pups were sacrificed at PT7 for histological analysis.
Histology was performed as described by Habelrih et al (Habelrih et al, [2023]). Images were captured using ×10 objective with a Zeiss AxioScan.Z1.

[7] = molecular target: T1, IL-6R (HEK-Blue IL-6 cells); test: IL-6-induced IL-1β, TNF-α and IL-6 mRNA in HEK-Blue IL-6 cells, dose-response (RT-qPCR); format: cell-based
Procedure: For in vitro dose–response experiments, HEK-blue IL-6 cells were allowed to acclimate for two passages to complete the stabilization of the receptor before experiments. Prior to experiments, cells at 70% of confluence were added to six-well plates, then starved overnight before media was changed 30 min prior to beginning the stimulation. After the 30 min pre-incubation, the cells were treated with HSJ633 (from 1 × 10^−12 to 1 × 10^−4 M) allowed to sit for 15 min, treated with 3.86 nM of IL-6, and incubated for 6 h. Cell lysis and mRNA extraction were performed by adding RiboZol. Samples were stored at −20 °C until RNA extraction and quantification (see section below).
For RT-qPCR experiments, cells were plated in 6-well plates at 70% of confluence and starved overnight. Cells were treated respectively with HSJ633, HSJ630, HSJ631, HSJ634, HSJ635, HSJ639 (1 × 10^−6 M), or TCZ (3.44 μM, based on validated doses (Sahraoui et al, [2014])) for TNF-α expression. For hIL-1, hIL-6, and hTNF-α expression, cells were treated with HSJ633 using concentrations ranging from 10^−11 to 10^−4 M, allowing for equilibrium over 15 min. Cells were then treated with […] of IL-6 for 6 h for both experiments. Cell lysis was performed by adding RIBOzol. Samples were stored at −20 °C until analysis by quantitative PCR. To determine the degree of phosphorylation of different proteins (STAT3, ERK, AKT, and p38), HEK-Blue IL-6 cells were treated with HSJ633 (10^−6 M), TCZ (3.44 uM) or vehicle for 30 min in DMEM only. Human IL-6 (3.86 nM) was added to the medium for 15 min to stimulate IL-6R pathways leading to STAT3, ERK, and AKT activation. For p38 activation, 25 min of stimulation with IL-6 was required. The wells were charged with radioimmunoprecipitation assay buffer (RIPA) at a concentration of 1×, cOmplete EDTA-free Protease Inhibitor Cocktail final concentration 1×, and phenylmethanesulfonyl fluoride (PMSF) 1 mM. Samples were shaken for 30 min followed by centrifugation at 12,000 RPM at 4 °C for 20 min to harvest the proteins. Proteins were stored at −80 °C until analysis by immunoblotting.
Samples (30 mg) of uterus, placenta, fetal membranes, as well as the fetal lung, brain, and intestine, were thawed and deposited in lysis buffer according to the manufacturer’s protocol (Qiagen RNeasy Plus Mini Kit). Cell lysis and RNA extraction were performed directly into RiboZol. RNA was extracted from tissue fragments and cells according to the manufacturer’s protocol. RNA was quantified with a NanoDrop 1000 spectrophotometer and samples (500 ng) were treated with DNAse I (1U). RNA was used to synthesize cDNA using iScript reverse transcription superMix. Quantitative gene expression analysis was performed on a Light Cycler 96 with iTaq Universal SYBR Green Supermix. […]
Target sequence in this assay (P08887 20-468): as the sequence (P08887 20-468) above
Target sequence in this assay (P40189 23-918 partner): as the sequence (P40189 23-918 partner) above
Target sequence in this assay (P05231 30-212 partner): as the sequence (P05231 30-212 partner) above

With `O=C1OC2(c3ccc(O)cc3Oc3cc(O)ccc32)c2ccc(N=C=S)cc21` [FITC] the “placental fluorescence, LPS-treated” value [1] was “increase in signal intensity in the placenta”.
In the case of `Cc1ccc(S(=O)(=O)OCC(=O)Nc2ccc(C(=O)O)c(O)c2)cc1` [NSC74859], the “prevention of LPS-induced PTB” value [2] is reported as “successfully inhibited preterm birth”, the “prevention of LPS-induced PTB” value ([2]; listed as NCS74859) is reported as “effective in preventing LPS-induced PTB” and the “% PTB” value ([2]; experiment of April 2022, less than 18 days = PTB) is reported as 25.00%. The “GD (gestation day)” value ([2]; experiment of April 2022, 18.5 days and more = term) was 18 and 18.5 and 19, the “% PTB” value ([2]; experiment of May 2022) was 20.00% and the “GD (gestation day)” value ([2]; experiment of May 2022) was 19.5 and 18.5 and 17.5. The “% PTB” value ([2]; third, undated experiment) was 42.86% and the “GD (gestation day)” value ([2]; third, undated experiment) was 17 and 17.5 and 19 and 19.5.
In the case of “[^125I]-HSJ633: HSJ633 iodine-labeled after Bolton–Hunter reaction ([dV][dR][dK][dF][dQ][dN][dS][dP][dA]; also: Bolton–Hunter reagent (3-(4-hydroxyphenyl)propionic acid) conjugated to primary amines, iodinated with 125I)”, the “[125I]-HSJ633 binding on HEK293 cells devoid of IL-6R” value [3] is reported as “No binding”.
With “IL-6: human IL-6, Peprotech 200-06, endogenous IL-6R ligand” the “displacement of [125I]-HSJ633 by IL-6” value ([4]; [125I]-HSJ633 10^−8 M, IL-6 10^−4 M) was “not by non-radioactive IL-6; also recorded: IL-6 does not displace binding of HSJ633” and the TNF-α expression [5] was “induced TNF-α expression”.
For `CC(C)[C@@H](N)C(=O)N[C@H](CCCNC(=N)N)C(=O)N[C@H](CCCCN)C(=O)N[C@H](Cc1ccccc1)C(=O)N[C@H](CCC(N)=O)C(=O)N[C@H](CC(N)=O)C(=O)N[C@H](CO)C(=O)N1CCC[C@@H]1C(=O)N[C@H](C)C(=O)O` [HSJ633] (HELM PEPTIDE1{[dV].[dR].[dK].[dF].[dQ].[dN].[dS].[dP].[dA]}$$$$V2.0), the IC50 ([4]; 1.5 h room temperature, gamma counter, read-out: IC50, displacement of bound [125I]-HSJ633 by cold HSJ633 (% of specific binding)) was 12 nM, the “alveolar density in lung, referee's reading of figure” value [6] was “causes loss of alveolar density in the lung” and the IC50 ([7]; HEK-Blue IL-6, HSJ633 10^−11–10^−4 M, IL-6 3.86 nM 6 h, RT-qPCR normalized to 18S, 3–8 samples per group, read-out: IC50 hIL-1β mRNA) was 0.8 nM. The IC50 ([7]; HEK-Blue IL-6, HSJ633 10^−11–10^−4 M, IL-6 3.86 nM 6 h, RT-qPCR normalized to 18S, 3–8 samples per group, read-out: IC50 hIL-6 mRNA) was 2 nM, the IC50 ([7]; HEK-Blue IL-6, HSJ633 10^−11–10^−4 M, IL-6 3.86 nM 6 h, RT-qPCR normalized to 18S, 3–8 samples per group, read-out: IC50 hTNF-a mRNA) was 0.2 nM and the IC50 ([7]; HEK-Blue IL-6, IL-6 3.86 nM, 6 h, RT-qPCR, average over three cytokines, read-out: average IC50, inhibition of IL-6-induced expression of IL-1β, TNF-α, and IL-6 mRNA) was about 1 nM.
